IC50 and Kd data for 2 compounds are collected here from article PMC11672137, “High-Affinity Lectin Ligands Enable the Detection of Pathogenic Pseudomonas aeruginosa Biofilms: Implications for Diagnostics and Therapy” (JACS Au, 2024).

The target in experiment [1] is T1, LecA (Pseudomonas aeruginosa, UniProt Q05097).
T1 construct: made in house
In words: Competitive binding assay based on fluorescence polarization, LecA. The protocol: Next, binding of the optimized divalent ligand 17 and its synthetic precursor 16 to LecA was evaluated by fluorescence polarization-based (FP) assays,[47] SPR, and ITC. […] Therefore, fluorescent ligand 17 was analyzed in a direct binding experiment by FP. […] The dissociation constants for 16 were 47.2 ± 11.3 nM (ITC) and 47.8 ± 44.1 nM (steady-state SPR), while for 17, the values were 64.1 ± 31.1 nM and 79.3 ± 24.9 nM (steady-state SPR). For the SPR experiments, Kd was also determined by single-cycle kinetic analysis resulting in approximately five times higher affinity, but the data have limited reliability due to suboptimal fit for the kinetic curves (Figures S13B and S14).[58]−[60] […]
137 mM NaCl, 2.6 mM KCl at pH 7.4 supplemented with 1 mM CaCl2). Protein concentration was determined by UV spectroscopy at 280 nm using a molar extinction coefficient of 27 960 M-1 cm-1 for LecA and 6 990 M-1 cm-1 for LecB.
All synthesized alkyne precursors (S5m, S5p, S6m, S6p, S11, 25, S16, S22 and S24) were analysed in the previously established competitive binding assays based on fluorescence polarization (Figure S2).18,19 Galactose-based compounds (S5m, S5p, S6m, S6p, S11) were evaluated against LecA and C-glycoside-based compounds […] and S16 against LecB. […]
PheraStar FS plate reader (BMG Labtech GmbH, Germany) with excitation filters at 485 nm and emission filters at 535 nm. […]

In experiment [2] the target is T1, LecA. In words: Direct binding assay based on fluorescence polarization, titration with LecA. As to conditions: read-out: Kd (direct binding, fluorescence polarization); LecA titrated to fluorescent probe, TBS/Ca2+ buffer.

T1 sequence (Q05097 whole entry): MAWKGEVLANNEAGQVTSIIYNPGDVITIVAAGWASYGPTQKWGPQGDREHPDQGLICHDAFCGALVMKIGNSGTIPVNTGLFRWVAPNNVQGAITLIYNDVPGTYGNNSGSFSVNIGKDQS

In the case of `C#CCCN(Cc1ccc(NC(=O)CCc2ccc(O[C@@H]3O[C@H](CO)[C@H](O)[C@H](O)[C@H]3O)cc2)cc1)Cc1ccc(NC(=O)CCc2ccc(O[C@@H]3O[C@H](CO)[C@H](O)[C@H](O)[C@H]3O)cc2)cc1` [compound 16], the IC50 at LecA [1] is 5.6 ± 2.2 µM.
Turning to `O=C(CCc1ccc(O[C@@H]2O[C@H](CO)[C@H](O)[C@H](O)[C@H]2O)cc1)Nc1ccc(CN(CCc2cn(CCOCCOCCOCCNC(=S)Nc3ccc4c(c3)C(=O)OC43c4ccc(O)cc4Oc4cc(O)ccc43)nn2)Cc2ccc(NC(=O)CCc3ccc(O[C@@H]4O[C@H](CO)[C@H](O)[C@H](O)[C@H]4O)cc3)cc2)cc1` [compound 17], on LecA [2], the Kd was determined as 1.05 ± 0.12 µM.
